From patent US9730944B2, “Antiviral activity of novel bicyclic heterocycles” (priority 2010, dated 2017)
In brackets after ≈: the same amount, converted by molar mass. Like-named read-outs stand apart in the source and are kept apart here.

Key:
[1] = Cytotoxicity in HCV-1a replicon cells, Promega CellTiter-Glo cell viability assay
[2] = Cytotoxicity in G-luc replicon cells, Promega CellTiter-Glo cell viability assay; conditions: G-luc (GLuc-1) HCV genotype 1a H-77 replicon cells
poliovirus (PV type 3) = assay: microbe, parasite or virus in culture; assay type: cell-based; conditions: Enterovirus C, read-out: PV-3 EC50
[3] = tested on: genotype 1a H-77 replicon; assay: HCV genotype 1a replicon potency in GLuc-1 cells, bioluminescence; assay type: cell-based; conditions: 72 hours, average of two or more independent experiments ± std. dev, read-out: Stable replicon cell lines EC50 (μM) Genotype 1a (Gluc-1)
in vitro [4] = conditions: African green monkey, PV CC50
poliovirus (PV type 1) = assay: microbe, parasite or virus in culture; assay type: cell-based; conditions: Enterovirus C, read-out: PV-1 EC50
poliovirus (PV type 2) = assay: microbe, parasite or virus in culture; assay type: cell-based; conditions: Enterovirus C, read-out: PV-2 EC50
[5] = tested on: infectious genotype 2a virus (a J6/JFH-1 chimera); assay: JFH-1 HCV-2a virus assay in Lunet-CD81 cells, NS3 expression readout; assay type: cell-based
genotype 1b replicon = assay: HCV genotype 1b replicon potency in R-luc cells, bioluminescence; assay type: cell-based; conditions: 72 hours, average of two or more independent experiments ± std. dev, read-out: Stable replicon cell lines EC50 (μM) Genotype1b (R-luc)
[6] = tested on: genotype 1a H-77 replicon; assay: HCV-1a replicon potency in RLuc-1 cells, bioluminescence; assay type: cell-based; conditions: for HCV-1a Replicon Selectivity Index: CC50/EC50, genotype 1a replicon; for EC50: Hepatitis C virus, 72 h, read-out: HCV-1a Replicon EC50 (μM)
in vitro [7] = conditions: human, PV CC50
hRV-9 = assay: Rhinovirus type 9 antiviral assay in Hela Rh cells, MTS readout; assay type: cell-based, Human rhinovirus; conditions: Human rhinovirus sp., HRV9, HeLa Rh, Hela Rh cells; read-out: hRV-9 EC50
hRV-2 = assay: Rhinovirus type 2 antiviral assay in Hela Rh cells, MTS readout; assay type: cell-based, Human rhinovirus; conditions: Rhinovirus A, HRV2, HeLa Rh, Hela Rh cells; read-out: hRV-2 EC50
hRV-85 = assay: Rhinovirus type 85 antiviral assay in Hela Rh cells, MTS readout; assay type: cell-based, Human rhinovirus; conditions: Human rhinovirus sp., HRV85, HeLa Rh, Hela Rh cells; read-out: hRV-85 EC50
hRV-45 = assay: Rhinovirus type 45 antiviral assay in Hela Rh cells, MTS readout; assay type: cell-based, Human rhinovirus; conditions: Human rhinovirus sp., HRV45, HeLa Rh, Hela Rh cells; read-out: hRV-45 EC50
hRV-29 = assay: Rhinovirus type 29 antiviral assay in Hela Rh cells, MTS readout; assay type: cell-based; conditions: Human rhinovirus sp., HRV29, HeLa Rh, Hela Rh cells; read-out: hRV-29 EC50
hRV-86 = assay: Rhinovirus type 86 antiviral assay in Hela Rh cells, MTS readout; assay type: cell-based, Human rhinovirus; conditions: Human rhinovirus sp., HRV86, HeLa Rh, Hela Rh cells; read-out: hRV-86 EC50
hRV-42 = assay: Rhinovirus type 42 antiviral assay in Hela Rh cells, MTS readout; assay type: cell-based, Human rhinovirus; conditions: Human rhinovirus sp., HRV42, HeLa Rh, Hela Rh cells; read-out: hRV-42 EC50
hRV-70 = assay: Rhinovirus type 70 antiviral assay in Hela Rh cells, MTS readout; assay type: cell-based, Human rhinovirus; conditions: Human rhinovirus sp., HRV70, HeLa Rh, Hela Rh cells; read-out: hRV-70 EC50
hRV-14 = assay: Rhinovirus type 14 antiviral assay in Hela Rh cells, MTS readout; assay type: cell-based, Human rhinovirus; conditions: Rhinovirus B, HRV14, HeLa Rh, Hela Rh cells; read-out: hRV-14 EC50
hRV-72 = assay: Rhinovirus type 72 antiviral assay in Hela Rh cells, MTS readout; assay type: cell-based, Human rhinovirus; conditions: Human rhinovirus sp., HRV72, HeLa Rh, Hela Rh cells; read-out: hRV-72 EC50
hRV-39 = assay: Rhinovirus type 39 antiviral assay in Hela Rh cells, MTS readout; assay type: cell-based, Human rhinovirus; conditions: Human rhinovirus sp., HRV39, HeLa Rh, Hela Rh cells; read-out: hRV-39 EC50
hRV-15 = assay: Rhinovirus type 15 antiviral assay in Hela Rh cells, MTS readout; assay type: cell-based, Human rhinovirus; conditions: Human rhinovirus sp., HRV15, HeLa Rh, Hela Rh cells; read-out: hRV-15 EC50
[8] = Cytostatic/cytotoxic effect in Hela Rh cells (rhinovirus methodology, MTS); conditions: human, CC50, Hela Rh cells
hRV-41 = assay: Rhinovirus type 41 antiviral assay in Hela Rh cells, MTS readout; assay type: cell-based, Human rhinovirus; conditions: Human rhinovirus sp., HRV41, HeLa Rh, Hela Rh cells; read-out: hRV-41 EC50
hRV-63 = assay: Rhinovirus type 63 antiviral assay in Hela Rh cells, MTS readout; assay type: cell-based, Human rhinovirus; conditions: Human rhinovirus sp., HRV63, HeLa Rh, Hela Rh cells; read-out: hRV-63 EC50
[9] = Hepatitis C virus, 72 h, read-out: Genotype 2a Virus (Lunet-CD81) EC50 (μM)

| SMILES | CC50 at 72 h [1] | CC50 at 72 h [2] | EC50 ([3]; Hepatitis C virus) | EC50 [5, 9] | EC50 (genotype 1b replicon; Hepatitis C virus) | EC50 (hRV-9) | EC50 (hRV-2) | EC50 (hRV-85) | EC50 (hRV-45) | EC50 (hRV-29) | EC50 (hRV-86) | EC50 (hRV-42) | EC50 (hRV-70) | EC50 (hRV-14) | EC50 (hRV-72) | EC50 (hRV-39) | EC50 (hRV-15) | CC50 [8] | EC50 (hRV-41) | EC50 (hRV-63) | also measured |
| --- | --- | --- | --- | --- | --- | --- | --- | --- | --- | --- | --- | --- | --- | --- | --- | --- | --- | --- | --- | --- | --- |
| Nc1nc(N2CCN(C(=O)COc3ccc(Cl)cc3)CC2)c2nc(C3CC3)sc2n1 [Example 119, 5-amino-2-cyclopropyl-7-[4-(4-chlorophenoxyacetyl)piperazin-1-yl]-thiazolo[5,4-d]pyrimidine] | > 44.4 µM | > 50 µM | 0.422 ± 0.104 µM | > 50 µM | 0.341 ± 0.024 µM | – | – | – | – | – | – | – | – | – | – | – | – | – | – | – | EC50 (poliovirus (PV type 3); HeLa): > 50 µg/mL; EC50 (poliovirus (PV type 3); Vero): 12.5 µg/mL (≈ 28 µM); CC50 (in vitro [4]): > 150 µg/mL; EC50 (poliovirus (PV type 1); HeLa): 24.1 µg/mL (≈ 54.1 µM); EC50 (poliovirus (PV type 1); Vero): 0.34 µg/mL (≈ 0.764 µM); EC50 (poliovirus (PV type 2); HeLa): 1.21 µg/mL (≈ 2.72 µM); EC50 (poliovirus (PV type 2); Vero): 0.33 µg/mL (≈ 0.742 µM); HCV-1a Replicon Selectivity Index [6]: >87; EC50 [6]: 0.5 µM; CC50 (in vitro [7]): > 50 µg/mL |
| Nc1nc(N2CCN(C(=O)COc3ccccc3)CC2)c2nc(-c3ccc(F)cc3)[nH]c2n1 [Example 401, 1-(4-(2-amino-8-(4-fluorophenyl)-9H-purin-6-yl)piperazin-1-yl)-2-phenoxyethanone] | 20.4 µM | > 50 µM | 0.059 ± 0.008 µM | 15.4 µM | 0.081 ± 0.041 µM | – | – | – | – | – | – | – | – | – | – | – | – | – | – | – | HCV-1a Replicon Selectivity Index [6]: 26.5; EC50 [6]: 0.8 µM |
| Nc1nc(N2CCN(C(=O)COc3ccc(Cl)cc3)CC2)c2nc(CCCCc3ccc(F)cc3)sc2n1 [Example 292, 1-(4-(5-amino-2-(4-(4-fluorophenyl)butyl)thiazolo[5,4-d]pyrimidin-7-yl)piperazin-1-yl)-2-(4-chlorophenoxy)ethanone] | – | – | – | – | – | > 50 µg/mL | 13.6 µg/mL (≈ 24.6 µM) | 10.3 µg/mL (≈ 18.6 µM) | > 50 µg/mL | > 50 µg/mL | > 50 µg/mL | > 50 µg/mL | > 50 µg/mL | > 50 µg/mL | > 50 µg/mL | 39.4 µg/mL (≈ 70.9 µM) | > 50 µg/mL | > 50 µg/mL | > 50 µg/mL | > 50 µg/mL | – |
| COc1ccc(OCC(=O)N2CCN(c3nc(N)nc4sc(CCc5ccc(OC)c(OC)c5)nc34)CC2)cc1 [Example 257, 1-(4-(5-amino-2-(3,4-dimethoxyphenethyl)thiazolo[5,4-d]pyrimidin-7-yl)piperazin-1-yl)-2-(4-methoxyphenoxy)ethanone] | – | – | – | – | – | 3.69 µg/mL (≈ 6.53 µM) | 3.01 µg/mL (≈ 5.33 µM) | 8.05 µg/mL (≈ 14.3 µM) | 30.8 µg/mL (≈ 54.6 µM) | 14.9 µg/mL (≈ 26.3 µM) | 4.79 µg/mL (≈ 8.48 µM) | 5.09 µg/mL (≈ 9.01 µM) | 7.1 µg/mL (≈ 12.6 µM) | 2.32 µg/mL (≈ 4.11 µM) | 5.95 µg/mL (≈ 10.5 µM) | 2.26 µg/mL (≈ 4 µM) | 46.2 µg/mL (≈ 81.9 µM) | > 50 µg/mL | 31.1 µg/mL (≈ 55.1 µM) | 26.4 µg/mL (≈ 46.8 µM) | – |
| C[C@@]1(O)[C@H](O)[C@@H](CO)O[C@H]1n1cnc2c(N)ncnc21 [2′CMA] | – | – | – | – | – | – | – | – | – | – | – | – | – | – | – | – | – | – | – | – | EC50 [3]: 0.23 ± 0.3 µM; EC50 ([5]; J6/JFH-1 chimera, MOI of 1, 72 hours, NS3 readout, read-out: Genotype 2a Virus (Lunet-CD81) EC50): 0.3 ± 0.03 µM; EC50 (genotype 1b replicon): 0.3 ± 0.02 µM |
| Cc1ccc(CCc2nc3c(N4CCN(C(=O)COc5ccc(Br)cc5)CC4)nc(N)nc3s2)cc1 [Example 258, 1-(4-(5-amino-2-(4-methylphenethyl)thiazolo[5,4-d]pyrimidin-7-yl)piperazin-1-yl)-2-(4-bromophenoxy)ethanone] | – | – | – | – | – | > 50 µg/mL | 9.58 µg/mL (≈ 16.9 µM) | 8.33 µg/mL (≈ 14.7 µM) | 35.4 µg/mL (≈ 62.3 µM) | > 50 µg/mL | > 50 µg/mL | > 50 µg/mL | > 50 µg/mL | > 50 µg/mL | > 50 µg/mL | 13 µg/mL (≈ 22.9 µM) | > 50 µg/mL | 46.2 µg/mL (≈ 81.5 µM) | > 50 µg/mL | 34 µg/mL (≈ 60 µM) | – |
